Reference: ChEMBL document CHEMBL4507283, “Data for DCP probe BI-1935” (2021)

Columns and labels:
[1] = biological target: GABA-A receptor; anion channel (Rattus norvegicus) (UniProt O09028+P15431+P18506+P18508+P19969+P20236+P23574+P23576+P28471+P28473+P30191+P62813+P63079+P63138+Q91ZM7+Q9ES14); conditions: Compound concentration 10.0 uM
[2] = biological target: Hepatocyte growth factor receptor (Homo sapiens) (UniProt P08581); conditions: Compound concentration 1000.0 nM
[3] = biological target: Activin receptor type-1B (Homo sapiens) (UniProt P36896); conditions: Compound concentration 1000.0 nM
[4] = biological target: Calcitonin-gene-related peptide receptor, CALCRL/RAMP1 (Homo sapiens) (UniProt O60894+Q16602); assay: CGRP/HU Eurofins-Panlabs selectivity data (BI); type: protein-complex assay; conditions: Compound concentration 10.0 uM
[5] = biological target: D(1A) dopamine receptor (Homo sapiens) (UniProt P21728); assay: D1/HU Eurofins-Panlabs selectivity data (BI); conditions: Compound concentration 10.0 uM
[6] = biological target: Angiopoietin-1 receptor (Homo sapiens) (UniProt Q02763); conditions: Compound concentration 1000.0 nM
[7] = biological target: Mitogen-activated protein kinase 6 (Homo sapiens) (UniProt Q16659); conditions: Compound concentration 1000.0 nM
[8] = biological target: Amine oxidase [flavin-containing] A (MAO-A) (Homo sapiens, UniProt P21397); assay: MAOA Eurofins-Panlabs selectivity data (BI); set-up: mode of action inhibitor; conditions: compound concentration 10 uM, read-out: % Ctrl
[9] = biological target: Serine/threonine-protein kinase BRSK1 (Homo sapiens) (UniProt Q8TDC3); conditions: Compound concentration 1000.0 nM
[10] = biological target: Ribosomal protein S6 kinase alpha-6 (Homo sapiens) (UniProt Q9UK32); conditions: Compound concentration 1000.0 nM
[11] = biological target: Serine/threonine-protein kinase 32B (Homo sapiens) (UniProt Q9NY57); conditions: Compound concentration 1000.0 nM
[12] = test system: Phosphatidylinositol 4,5-bisphosphate 3-kinase catalytic subunit alpha isoform (Homo sapiens), P42336 [E545A]; conditions: Compound concentration 1000.0 nM
[13] = biological target: Cyclin-dependent kinase-like 1 (Homo sapiens) (UniProt Q00532); conditions: Compound concentration 1000.0 nM
[14] = biological target: Mitogen-activated protein kinase kinase kinase 2 (Homo sapiens) (UniProt Q9Y2U5); conditions: Compound concentration 1000.0 nM
[15] = biological target: Receptor tyrosine-protein kinase erbB-3 (Homo sapiens) (UniProt P21860); conditions: Compound concentration 1000.0 nM
[16] = biological target: Interleukin-1 receptor-associated kinase 1 (Homo sapiens) (UniProt P51617); conditions: Compound concentration 1000.0 nM
[17] = test system: GABA-B receptor (GABBR1, rat); assay: GABAB/RA Eurofins-Panlabs selectivity data (BI); conditions: Compound concentration 10.0 uM
[18] = biological target: Serine/threonine-protein kinase BRSK2 (Homo sapiens) (UniProt Q8IWQ3); conditions: Compound concentration 1000.0 nM
[19] = biological target: Rhodopsin kinase GRK7 (Homo sapiens) (UniProt Q8WTQ7); conditions: Compound concentration 1000.0 nM
[20] = test system: Receptor-type tyrosine-protein kinase FLT3 (Homo sapiens), P36888 [R834Q]; conditions: Compound concentration 1000.0 nM
[21] = biological target: Cyclin-dependent kinase 11B (Homo sapiens) (UniProt P21127); conditions: Compound concentration 1000.0 nM
[22] = biological target: RAC-beta serine/threonine-protein kinase (Homo sapiens) (UniProt P31751); conditions: Compound concentration 1000.0 nM
[23] = biological target: Mitogen-activated protein kinase kinase kinase 20 (Homo sapiens) (UniProt Q9NYL2); conditions: Compound concentration 1000.0 nM
[24] = biological target: Dual specificity mitogen-activated protein kinase kinase 3 (Homo sapiens) (UniProt P46734); conditions: Compound concentration 1000.0 nM
[25] = biological target: Serine/threonine-protein kinase 38-like (Homo sapiens) (UniProt Q9Y2H1); conditions: Compound concentration 1000.0 nM
[26] = test system: Tyrosine-protein kinase ABL1 (Homo sapiens), P00519 [F317L]; conditions: Compound concentration 1000.0 nM
[27] = biological target: Adrenergic receptor alpha-1 (Rattus norvegicus) (UniProt P15823+P23944+P43140); assay: ALPHA1/R Eurofins-Panlabs selectivity data (BI); type: protein assay; conditions: Compound concentration 10.0 uM
[28] = test system: Hepatocyte growth factor receptor (Homo sapiens), P08581 [Y1235D]; conditions: Compound concentration 1000.0 nM
[29] = biological target: Alpha-2A adrenergic receptor (Homo sapiens) (UniProt P08913); conditions: Compound concentration 10.0 uM
[30] = biological target: 3-hydroxy-3-methylglutaryl-coenzyme A reductase (Rattus norvegicus) (UniProt P51639); assay: HMGCOARED Eurofins-Panlabs selectivity data (BI); conditions: Compound concentration 10.0 uM
[31] = biological target: cAMP-dependent protein kinase catalytic subunit PRKX (Homo sapiens) (UniProt P51817); conditions: Compound concentration 1000.0 nM
[32] = biological target: Mitogen-activated protein kinase 3 (Homo sapiens) (UniProt P27361); conditions: Compound concentration 1000.0 nM
[33] = biological target: Interstitial collagenase (Homo sapiens) (UniProt P03956); assay: PEP_MMP-1 Eurofins-Panlabs selectivity data (BI); conditions: Compound concentration 10.0 uM
[34] = biological target: Serine/threonine-protein kinase RIO2 (Homo sapiens) (UniProt Q9BVS4); conditions: Compound concentration 1000.0 nM
[35] = biological target: Serine/threonine-protein kinase D2 (Homo sapiens) (UniProt Q9BZL6); conditions: Compound concentration 1000.0 nM
[36] = biological target: Serine/threonine-protein kinase PAK 4 (Homo sapiens) (UniProt O96013); conditions: Compound concentration 1000.0 nM
[37] = biological target: 5-hydroxytryptamine receptor 2A (Homo sapiens) (UniProt P28223); conditions: Compound concentration 10.0 uM
[38] = biological target: Myosin light chain kinase, smooth muscle (Homo sapiens) (UniProt Q15746); conditions: Compound concentration 1000.0 nM
[39] = test system: Mast/stem cell growth factor receptor Kit (Homo sapiens), P10721 [V559D,V654A]; conditions: Compound concentration 1000.0 nM
[40] = biological target: Epithelial discoidin domain-containing receptor 1 (Homo sapiens) (UniProt Q08345); conditions: Compound concentration 1000.0 nM
[41] = biological target: Opioid receptor (Rattus norvegicus) (UniProt P33533+P34975+P33535); assay: OPIAT/NS Eurofins-Panlabs selectivity data (BI); type: protein assay; conditions: Compound concentration 10.0 uM
[42] = biological target: Serine/threonine-protein kinase N2 (Homo sapiens) (UniProt Q16513); conditions: Compound concentration 1000.0 nM
[43] = biological target: Inhibitor of nuclear factor kappa-B kinase subunit beta (Homo sapiens) (UniProt O14920); conditions: Compound concentration 1000.0 nM

Sequence of Mast/stem cell growth factor receptor Kit (Homo sapiens), P10721 [V559D,V654A] (P10721 whole entry V559D/V654A, the tested form may be a part): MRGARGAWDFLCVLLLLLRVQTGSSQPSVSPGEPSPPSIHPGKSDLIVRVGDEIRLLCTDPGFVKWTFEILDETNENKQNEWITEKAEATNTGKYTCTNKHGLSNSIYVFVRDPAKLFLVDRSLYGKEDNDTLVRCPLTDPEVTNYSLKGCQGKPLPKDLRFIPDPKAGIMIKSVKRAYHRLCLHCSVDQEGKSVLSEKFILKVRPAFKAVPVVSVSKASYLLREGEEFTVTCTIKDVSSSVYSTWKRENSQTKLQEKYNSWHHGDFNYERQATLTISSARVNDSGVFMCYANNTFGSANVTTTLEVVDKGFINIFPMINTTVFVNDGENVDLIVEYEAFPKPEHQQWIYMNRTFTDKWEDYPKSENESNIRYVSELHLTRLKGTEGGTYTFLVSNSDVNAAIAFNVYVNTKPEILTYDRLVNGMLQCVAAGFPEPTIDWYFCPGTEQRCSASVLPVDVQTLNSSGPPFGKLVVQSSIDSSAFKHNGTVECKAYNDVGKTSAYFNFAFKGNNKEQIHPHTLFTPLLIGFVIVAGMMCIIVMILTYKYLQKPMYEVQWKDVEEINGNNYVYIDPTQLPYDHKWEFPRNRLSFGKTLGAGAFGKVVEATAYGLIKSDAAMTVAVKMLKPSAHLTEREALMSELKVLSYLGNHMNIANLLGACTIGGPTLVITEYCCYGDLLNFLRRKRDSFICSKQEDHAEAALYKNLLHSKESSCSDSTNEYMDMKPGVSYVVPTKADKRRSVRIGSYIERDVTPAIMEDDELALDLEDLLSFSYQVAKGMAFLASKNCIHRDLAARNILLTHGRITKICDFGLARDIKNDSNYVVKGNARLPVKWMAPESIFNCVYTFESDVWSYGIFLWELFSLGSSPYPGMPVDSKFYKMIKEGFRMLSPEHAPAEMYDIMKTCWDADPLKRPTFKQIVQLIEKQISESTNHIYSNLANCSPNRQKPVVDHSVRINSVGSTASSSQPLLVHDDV
Sequence of Interleukin-1 receptor-associated kinase 1 (Homo sapiens) (P51617 whole entry, looked up): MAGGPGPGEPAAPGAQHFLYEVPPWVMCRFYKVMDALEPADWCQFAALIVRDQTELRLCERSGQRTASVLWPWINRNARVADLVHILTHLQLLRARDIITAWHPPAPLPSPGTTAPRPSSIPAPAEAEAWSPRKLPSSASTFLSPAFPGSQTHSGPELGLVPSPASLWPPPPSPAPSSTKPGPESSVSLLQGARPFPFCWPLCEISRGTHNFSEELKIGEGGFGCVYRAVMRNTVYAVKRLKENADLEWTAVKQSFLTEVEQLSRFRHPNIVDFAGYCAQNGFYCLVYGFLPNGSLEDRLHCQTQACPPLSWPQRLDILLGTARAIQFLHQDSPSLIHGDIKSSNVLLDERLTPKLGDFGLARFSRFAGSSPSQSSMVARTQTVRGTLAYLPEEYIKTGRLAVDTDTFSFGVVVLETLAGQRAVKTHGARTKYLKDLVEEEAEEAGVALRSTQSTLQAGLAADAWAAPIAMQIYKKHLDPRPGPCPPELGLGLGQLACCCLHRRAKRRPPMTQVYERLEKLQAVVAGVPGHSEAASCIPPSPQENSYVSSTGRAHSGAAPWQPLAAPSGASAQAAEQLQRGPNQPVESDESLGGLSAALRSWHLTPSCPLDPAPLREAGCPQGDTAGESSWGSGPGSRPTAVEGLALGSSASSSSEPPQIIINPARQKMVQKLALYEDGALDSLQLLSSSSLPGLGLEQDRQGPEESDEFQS
Sequence of Tyrosine-protein kinase ABL1 (Homo sapiens), P00519 [F317L] (P00519 whole entry F317L): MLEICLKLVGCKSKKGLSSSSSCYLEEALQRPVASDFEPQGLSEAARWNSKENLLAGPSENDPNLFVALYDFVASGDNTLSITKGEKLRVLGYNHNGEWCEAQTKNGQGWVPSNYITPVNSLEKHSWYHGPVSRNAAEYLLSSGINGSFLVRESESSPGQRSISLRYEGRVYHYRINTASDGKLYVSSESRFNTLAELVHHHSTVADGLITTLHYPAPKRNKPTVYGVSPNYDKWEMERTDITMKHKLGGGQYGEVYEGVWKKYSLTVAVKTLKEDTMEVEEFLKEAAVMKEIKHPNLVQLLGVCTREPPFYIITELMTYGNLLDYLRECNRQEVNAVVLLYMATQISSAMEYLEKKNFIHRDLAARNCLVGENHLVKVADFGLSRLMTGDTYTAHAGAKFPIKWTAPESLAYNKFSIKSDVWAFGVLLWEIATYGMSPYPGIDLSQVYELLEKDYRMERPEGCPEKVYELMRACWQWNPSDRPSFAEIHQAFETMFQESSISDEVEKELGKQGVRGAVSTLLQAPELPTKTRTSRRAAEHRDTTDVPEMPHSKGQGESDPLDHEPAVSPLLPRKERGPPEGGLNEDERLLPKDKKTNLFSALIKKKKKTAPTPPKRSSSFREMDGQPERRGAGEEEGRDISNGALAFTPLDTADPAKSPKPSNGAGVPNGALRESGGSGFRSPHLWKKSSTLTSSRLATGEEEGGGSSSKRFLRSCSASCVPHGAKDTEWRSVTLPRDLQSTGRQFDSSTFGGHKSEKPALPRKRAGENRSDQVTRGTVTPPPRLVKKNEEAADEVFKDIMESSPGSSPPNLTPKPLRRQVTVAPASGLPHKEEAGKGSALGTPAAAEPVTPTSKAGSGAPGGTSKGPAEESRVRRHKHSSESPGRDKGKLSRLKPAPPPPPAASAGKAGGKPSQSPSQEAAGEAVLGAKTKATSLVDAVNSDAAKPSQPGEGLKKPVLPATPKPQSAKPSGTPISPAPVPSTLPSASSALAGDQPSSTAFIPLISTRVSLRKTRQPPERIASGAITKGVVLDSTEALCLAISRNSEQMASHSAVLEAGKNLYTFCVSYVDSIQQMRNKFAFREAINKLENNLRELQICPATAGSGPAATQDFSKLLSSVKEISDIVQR
Sequence of Amine oxidase [flavin-containing] A (MAO-A) (P21397 whole entry): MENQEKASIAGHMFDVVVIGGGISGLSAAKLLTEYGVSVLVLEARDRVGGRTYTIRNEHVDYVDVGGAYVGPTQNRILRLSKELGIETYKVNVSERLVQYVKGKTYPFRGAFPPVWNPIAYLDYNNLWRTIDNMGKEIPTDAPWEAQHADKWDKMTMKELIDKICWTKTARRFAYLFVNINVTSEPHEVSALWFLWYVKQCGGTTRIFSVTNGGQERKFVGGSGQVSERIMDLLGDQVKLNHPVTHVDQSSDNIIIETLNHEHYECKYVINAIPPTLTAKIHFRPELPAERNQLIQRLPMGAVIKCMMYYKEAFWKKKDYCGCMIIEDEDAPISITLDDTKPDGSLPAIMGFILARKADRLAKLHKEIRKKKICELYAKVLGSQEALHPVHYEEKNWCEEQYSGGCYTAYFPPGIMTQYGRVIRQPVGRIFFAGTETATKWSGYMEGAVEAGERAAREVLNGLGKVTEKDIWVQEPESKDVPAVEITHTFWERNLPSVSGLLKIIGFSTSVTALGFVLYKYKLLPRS
Sequence of Epithelial discoidin domain-containing receptor 1 (Homo sapiens) (Q08345 whole entry, the tested form may be a part): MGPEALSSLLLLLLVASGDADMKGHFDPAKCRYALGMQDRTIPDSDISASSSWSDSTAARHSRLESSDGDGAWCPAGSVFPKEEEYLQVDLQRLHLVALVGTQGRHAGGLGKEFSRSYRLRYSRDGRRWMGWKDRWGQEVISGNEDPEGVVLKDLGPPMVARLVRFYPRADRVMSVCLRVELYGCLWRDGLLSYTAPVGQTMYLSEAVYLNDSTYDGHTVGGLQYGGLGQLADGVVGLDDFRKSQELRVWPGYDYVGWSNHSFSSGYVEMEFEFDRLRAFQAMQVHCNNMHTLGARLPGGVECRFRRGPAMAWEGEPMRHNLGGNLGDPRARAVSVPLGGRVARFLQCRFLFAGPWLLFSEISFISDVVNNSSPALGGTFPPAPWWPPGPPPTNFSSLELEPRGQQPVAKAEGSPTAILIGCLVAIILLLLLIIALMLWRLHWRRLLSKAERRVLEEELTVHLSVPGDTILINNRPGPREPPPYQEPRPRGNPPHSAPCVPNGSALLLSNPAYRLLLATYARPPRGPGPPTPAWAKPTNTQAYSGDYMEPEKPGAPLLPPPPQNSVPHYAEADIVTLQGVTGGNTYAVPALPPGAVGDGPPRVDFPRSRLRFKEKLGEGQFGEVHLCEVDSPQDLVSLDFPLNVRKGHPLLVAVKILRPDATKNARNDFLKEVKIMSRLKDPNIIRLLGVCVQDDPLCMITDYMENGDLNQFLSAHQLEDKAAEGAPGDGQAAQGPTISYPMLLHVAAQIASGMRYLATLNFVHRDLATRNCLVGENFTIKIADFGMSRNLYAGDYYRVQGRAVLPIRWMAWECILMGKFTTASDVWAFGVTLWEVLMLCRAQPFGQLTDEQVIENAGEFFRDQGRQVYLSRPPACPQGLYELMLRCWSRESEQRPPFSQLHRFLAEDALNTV
Sequence of Serine/threonine-protein kinase PAK 4 (Homo sapiens) (O96013 whole entry, looked up): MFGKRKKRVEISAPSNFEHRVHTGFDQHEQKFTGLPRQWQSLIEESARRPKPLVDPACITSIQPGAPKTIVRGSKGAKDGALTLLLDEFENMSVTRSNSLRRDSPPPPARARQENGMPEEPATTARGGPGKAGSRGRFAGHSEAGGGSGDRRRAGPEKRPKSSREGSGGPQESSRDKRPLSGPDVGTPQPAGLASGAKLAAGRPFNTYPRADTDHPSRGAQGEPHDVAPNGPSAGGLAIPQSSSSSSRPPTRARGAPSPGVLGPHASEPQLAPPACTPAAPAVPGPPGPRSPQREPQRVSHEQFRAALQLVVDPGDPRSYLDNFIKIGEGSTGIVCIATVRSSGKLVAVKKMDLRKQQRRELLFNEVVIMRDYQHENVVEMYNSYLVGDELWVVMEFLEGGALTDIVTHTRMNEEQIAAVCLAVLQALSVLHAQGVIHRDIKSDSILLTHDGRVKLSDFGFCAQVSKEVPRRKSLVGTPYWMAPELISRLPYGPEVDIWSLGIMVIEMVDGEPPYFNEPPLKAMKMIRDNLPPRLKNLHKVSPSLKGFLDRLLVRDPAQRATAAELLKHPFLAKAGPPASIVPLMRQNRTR

CCOCCn1cc(C(=O)Nc2ccc(-n3nc(-c4cccnc4)cc3C(F)(F)F)cn2)ccc1=O [BI 1935] gave an inhibition [1] of 18.1%, a residual activity [2] of 95% and a residual activity [3] of 79%. It also gave a residual activity [4] of 105%, a residual activity [5] of 110% and a residual activity [6] of 87%. The residual activity [7] was 100%, the activity at 10 µM [8] was 27% and the residual activity [9] was 100%. For the same compound, the residual activity [10] was 81%, the residual activity [11] was 100% and the residual activity [12] was 100%. It also gave a residual activity [13] of 80%, a residual activity [14] of 94% and a residual activity [15] of 87%. For the same compound, the residual activity [16] was 84%, the residual activity [17] was 94% and the residual activity [18] was 100%. For the same compound, the residual activity [19] was 88%, the residual activity [20] was 100% and the residual activity [21] was 100%. The residual activity [22] was 100%, the residual activity [23] was 73% and the residual activity [24] was 83%. For the same compound, the residual activity [25] was 66%, the residual activity [26] was 79% and the residual activity [27] was 94%. It also gave a residual activity [28] of 100%, an inhibition [29] of -1.74% and a residual activity [30] of 87%. It also gave a residual activity [31] of 100%, a residual activity [32] of 100% and a residual activity [33] of 100%. For the same compound, the residual activity [34] was 60%, the residual activity [35] was 100% and the residual activity [36] was 100%. It also gave an inhibition [37] of -4.26%, a residual activity [38] of 73% and a residual activity [39] of 100%. The residual activity [40] was 69%, the residual activity [41] was 99% and the residual activity [42] was 100%. For the same compound, the residual activity [43] was 100%.
